In patent US20060069132A1, “Azolecarboxamide herbicides” (priority 2004, published 2006):

What was measured:
giant foxtail = assay: Test A pre-/postemergence herbicide test; type: in vivo, Setaria faberi
In short: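 Sandy loam soil given preemergence directed spray; plants at 2 to 10 cm, one- to two-leaf stage, sprayed to runoff postemergence, compounds in non-phytotoxic solvent with surfactant. Injury rated visually versus untreated controls after about ten greenhouse days, 0 (no effect) to 100 (complete control); dash means not tested.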

rice = assay: Test B pre-/postemergence herbicide test; type: in vivo, Oryza sativa; details: 0 = no effect, 100 = complete control; for Rice plant response rating (0 to 100 scale) / plant injury at 125 g/ha: 125 g ai/ha; for Rice plant response rating (0 to 100 scale) / Plant response rating, Rice: preemergence; for plant injury at 125 g/ha: read-out: Rice plant response rating (0 to 100 scale)
In short: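 Herbicidal effect was judged by eye on a 0–100 scale after plants stood 13 to 15 days in the greenhouse following pre- or postemergence treatment with surfactant-containing formulations.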

barnyardgrass = assay: Test C flooded paddy test; type: in vivo, Echinochloa crus-galli
In short: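 Scoring by eye, 12–14 days post-treatment, greenhouse-held plants vs. controls; 0 no effect, 100 complete control. Sprayed at 1–4 leaves (2–18 cm); paddy barnyardgrass at 2 leaves, flooded.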

[1] = Postemergence, 500 g ai/ha, 0 to 100 scale, 0 no effect, 100 complete control
[2] = Postemergence, 2000 g ai/ha, 0 to 100 scale, 0 no effect, 100 complete control
[3] = Preemergence, 2000 g ai/ha, visual rating, 0 to 100 scale (0 no effect, 100 complete control)
[4] = preemergence, 500 g ai/ha, visual injury, 0 to 100 scale (0 no effect, 100 complete control)
[5] = 62 g ai/ha, scale 0 to 100 (0 no effect, 100 complete control)
[6] = 125 g ai/ha, scale 0 to 100 (0 no effect, 100 complete control)
[7] = Oryza sativa, pre-emergence, 336 h

SMILES	Foxtail, Giant plant response rating (giant foxtail; [1])	Plant response rating, Foxtail, Giant (giant foxtail; [2])	Foxtail, Giant plant response rating (giant foxtail; [3])	Foxtail, Giant plant response rating (giant foxtail; [4])	Rice plant response rating (0 to 100 scale) (rice)	Plant response rating, Rice (rice; 500 g ai/ha, visual rating)	Barnyardgrass plant response rating (barnyardgrass; 16 g ai/ha, scale 0 to 100)	Barnyardgrass plant response rating (barnyardgrass; 31 g ai/ha, scale 0 to 100)	Barnyardgrass plant response rating (barnyardgrass; [5])	Barnyardgrass plant response rating (barnyardgrass; [6])	plant injury at 125 g/ha (rice; [7])	plant injury at 500 g/ha (rice; Oryza sativa, pre-emergence, 336 h, 500 g ai/ha, visual rating, read-out: Plant response rating, Rice)	pest or weed control at 62 g/ha (barnyardgrass; Echinochloa crus-galli, 62 g ai/ha, scale 0 to 100 (0 no effect, 100 complete control), read-out: Barnyardgrass plant response rating)	pest or weed control at 125 g/ha (barnyardgrass; Echinochloa crus-galli, 125 g ai/ha, scale 0 to 100 (0 no effect, 100 complete control), read-out: Barnyardgrass plant response rating)	pest or weed control at 250 g/ha (barnyardgrass; Echinochloa crus-galli, 250 g ai/ha, scale of 0 to 100, 0 is no effect, 100 is complete control, read-out: Barnyardgrass plant response rating)	pest or weed control at 500 g/ha (barnyardgrass; Echinochloa crus-galli, 500 g ai/ha, visual rating after 12 to 14 days, scale 0 to 100 (0 no effect, 100 complete control), read-out: Plant response rating, Barnyardgrass)	Barnyardgrass plant response rating (barnyardgrass; 250 g ai/ha, scale of 0 to 100, 0 is no effect, 100 is complete control)	Plant response rating, Barnyardgrass (barnyardgrass; 500 g ai/ha, visual rating after 12 to 14 days, scale 0 to 100 (0 no effect, 100 complete control))
CCOC(=O)c1cccc(NC(=O)c2cc(C(C)(C)C)nn2C)n1 [Compound 313]	70	80	90	75	20	40	0	0	0	0	–	–	–	–	–	–	–	–
CCn1nc(C(C)(C)C)c(F)c1C(=O)Nc1cc(C(=O)N(C)C)ccc1F [Compound 276, N-[5-[(dimethylamino)carbonyl]-2-fluorophenyl]-3-(1,1-dimethylethyl)-1-ethyl-4-fluoro-1H-pyrazole-5-carboxamide]	–	–	–	–	–	–	–	–	–	–	50%	80%	0%	15%	50%	70%	–	–
C=CCN(C)C(=O)c1cccc(NC(=O)c2cc(C(C)(C)C)nn2CC)c1 [Compound 285]	25	55	90	60	40	80	–	–	10	25	–	–	–	–	–	–	55	75
CCc1cn(C(C)(C)C)nc1C(=O)Nc1cccc(C(=O)N(CC)CC)c1 [Compound 168, N-[3-[(diethylamino)carbonyl]phenyl]-1-(1,1-dimethylethyl)-4-ethyl-1H-pyrazole-3-carboxamide]	–	–	–	–	–	–	–	–	–	–	0%	–	–	–	–	–	–	–
